Results on 2 substances are retold here after patent publication US7470663B2, “Mixtures of insulin drug-oligomer conjugates comprising polyalkylene glycol, uses thereof, and methods of making same” (Biocon Limited, priority 2001, dated 2008).

For the assay, the system named is normal fasted beagle dogs. As to the kind of experiment: Activity and inter-subject variability: glucose lowering after oral liquid dosage formulation. The class given is in vivo. The settings on record: fasted beagles, 0.25 mg/kg oral liquid; compared with polydispersed PEG7AVG-hexyl-insulin, monoconjugate (FIG. 21).

Experimental: The inter-subject variability may be measured by various methods as will be understood by those skilled in the art. The inter-subject variability is preferably calculated as follows. The area under a dose response curve (AUC) (i.e., the area between the dose-response curve and a baseline value) is determined for each subject. The average AUC for all subjects is determined by summing the AUCs of each subject and dividing the sum by the number of subjects. The absolute value of the difference between the subject's AUC and the average AUC is then determined for each subject. The absolute values of the differences obtained are then summed to give a value that represents the inter-subject variability. Lower values represent lower inter-subject variabilities and higher values represent higher inter-subject variabilities.
An effective animal model for evaluating formulations uses normal fasted beagle dogs. These dogs are given 0.25 mg/kg of insulin conjugates to evaluate the efficacy of various formulations.
The protocol for dog experiments calls for a blood glucose measurement at time zero just before a drug is administered. The oral liquid dosage formulation is then squirted into the back of the dog's mouth. In each case, the dogs received 0.25 mg/kg of this solution. Blood is drawn at 15, 30, 60 and 120 minutes and glucose levels are measured and graphed. The lower the glucose levels, the better the activity of the insulin conjugate.

Consider “PEG7-hexyl-insulin, monoconjugate: human insulin monoconjugated at the B29 position with the activated mPEG7-hexyl oligomer of Example 18; non-polydispersed mixture”, for which the “activity (glucose lowering)” value is “higher activity” and the inter-subject variability result is given as “less inter-subject variability”.

For the substance “PEG10-hexyl-insulin, monoconjugate: non-polydispersed mixture of mPEG10-hexyl-insulin, monoconjugates”, the “activity (glucose lowering)” value was “higher activity” and the inter-subject variability entry is “less inter-subject variability”.
